Laboratory results: US20020037885A1, “Therapeutic compounds” (priority 1999, published 2002)

Test system: not given
Test: not given
Details: not given

| Structure (SMILES) | melting point |
| --- | --- |
| C=CCC(N)c1ccccc1-c1ccoc1.O=C(O)/C=C/C(=O)O (centres unmarked) | 183 to 185 °C |
| C=CC[C@H](N)c1ccc(F)cc1-c1noc2ccccc12.O=C(O)/C=C/C(=O)O | 97 to 108 °C |
| C=CC[C@@H](N)c1ccc(F)cc1-c1noc2ccccc12.O=C(O)/C=C/C(=O)O | 104 to 109 °C |
| C=CCC(N)c1ccccc1-c1ccc(C)c(F)c1.O=C(O)/C=C/C(=O)O (centres unmarked) | 194 to 196 °C |
| C=CCC(N)c1cc(F)ccc1-c1noc2ccc(F)cc12.O=C(O)/C=C/C(=O)O (centres unmarked) | 168 to 173 °C |
| C=CCC(N)C1(c2noc3ccccc23)CC=CS1.O=C(O)/C=C/C(=O)O (centres unmarked) | 173 to 178 °C |
| C=CCC(N)c1ccccc1Cc1cccc(OC)c1.O=C(O)/C=C/C(=O)O (centres unmarked) | 163 to 165 °C |
| NC(CCCC(F)(F)F)c1ccccc1-c1noc2ccccc12.O=C(O)/C=C/C(=O)O (centres unmarked) | 203 to 210 °C |
| C#CCC(N)c1ccccc1-c1noc2ccccc12.O=C(O)/C=C/C(=O)O (centres unmarked) [Example 13(4)] | 161 to 169 °C |
| C1=CCC(c2ccccc2-c2noc3ccccc23)NC1 (centres unmarked) [Example 36(11), 2-[2-(1,2-benzisoxazol-3-yl)-phenyl]-1,2,3,6-tetrahydropyridine] | 242 to 268 °C |
| C=CCC(N)c1ccccc1-c1noc2cnccc12.O=C(O)/C=C/C(=O)O (stereo not drawn) [16 (6), 2-(isoxazolo[5,4-c]pyridin-3-yl)-α-2-propenyl-benzenemethanamine (E)-butenedioate] | 183 to 189 °C |
| C=CCC(N)c1ccccc1-c1ccccc1OC.Cl (centres unmarked) | 236 to 240 °C |
| C=CCC(N)c1ccccc1-c1ccc(C)cc1F.O=C(O)/C=C/C(=O)O (centres unmarked) | 209 to 211 °C |
| C=CCC(N)c1ccc(F)cc1-c1noc2ccc(F)cc12.O=C(O)/C=C/C(=O)O (centres unmarked) | 164 to 169 °C |
| CC(C)=CCC(N)c1ccccc1-c1noc2ccccc12.O=C(O)/C=C\C(=O)O (centres unmarked) | 132 to 135 °C |
| c1ccc(C2CCCN2)c(-c2noc3ccccc23)c1 (centres unmarked) [Example 36(12), 2-[2-(1,2-benzisoxazol-3-yl)-phenyl]-pyrrolidine] | 253 to 261 °C |
| C#CCC(N)c1ccccc1-c1noc2ccccc12.O=C(O)/C=C/C(=O)O (centres unmarked) [Example 12(5)] | 165 to 170 °C |
| C=CCC(N)c1ccccc1-c1cc(-c2ccccc2)on1.O=C(O)/C=C/C(=O)O (centres unmarked) | 165 to 180 °C |
| C=CCC(N)c1ccccc1Cc1ccccc1OC.O=C(O)/C=C/C(=O)O (centres unmarked) | 172 to 174 °C |

| Structure (SMILES) | melting point |
| --- | --- |
| C=CCC(N)c1cc(F)ccc1-c1noc2cc(Cl)ccc12.O=C(O)/C=C\C(=O)O (centres unmarked) | 162 to 164 °C |
| C=CC[C@H](N)c1ccccc1-c1noc2cc(F)ccc12.Cl | 166 to 174 °C |
| CNC(Cc1ccccc1)c1ccccc1-c1noc2ccccc12.Cl (centres unmarked) | 175 °C |
| CNCc1ccccc1-c1noc2ccccc12.Cl | 230 °C |
| C=CCC(N)c1ccccc1-c1nc2ccccc2o1.O=C(O)/C=C/C(=O)O (centres unmarked) | 202 to 204 °C |
| C=CCC(N)c1ccccc1-c1cc2ccccc2o1.Cl (centres unmarked) | 225 to 227 °C |
| C=CCC(N)c1ccccc1Cc1ccccc1.O=C(O)/C=C/C(=O)O (centres unmarked) | 181 to 183 °C |
| C=CCC(N)c1ccccc1-c1ccon1.O=C(O)/C=C/C(=O)O (centres unmarked) | 150 to 175 °C |
| C=CCNCc1ccccc1-c1noc2ccccc12.Cl | 176 °C |
| C=CC[C@@H](N)c1ccccc1-c1noc2cc(F)ccc12.Cl | 148 to 150 °C |
| C=CCC(N)c1ccccc1-c1cc2cc(Cl)ccc2o1.Cl (centres unmarked) | 226 to 228 °C |
| C=CCC(N)c1cccc(-c2noc3ccccc23)c1.O=C(O)/C=C\C(=O)O (centres unmarked) | 148 to 150 °C |
| Cl.Cl.c1cncc(CNCc2ccccc2-c2noc3ccccc23)c1 | 154 °C |
| C=CCC(N)c1ccccc1-c1ccc(F)cc1.O=C(O)/C=C/C(=O)O (centres unmarked) | 201 to 203 °C |
| CCCC(N)c1ccccc1-c1noc2ccccc12.Cl (centres unmarked) | 118 to 126 °C |
| C=CCC(N)c1ccccc1-c1ccc(Cl)c(F)c1.O=C(O)/C=C/C(=O)O (centres unmarked) | 192 to 194 °C |
| C=CCC(N)c1ccccc1-c1nc2ccccc2s1.Cl (centres unmarked) | 240 to 242 °C |
| C=CCC(N)c1ccccc1-c1cnc2ccccc2c1.O=C(O)/C=C/C(=O)O (centres unmarked) | 194 to 197 °C |

Results, then the molecule that gave them:

| melting point | Structure (SMILES) |
| --- | --- |
| 104 to 106 °C | C=CCC(N)c1ccccc1-c1cc2cc(F)ccc2s1.Cl (centres unmarked) |
| 179 to 186 °C | C=CCC(N)c1ccccc1-c1noc2cc(C(F)(F)F)ccc12.O=C(O)/C=C/C(=O)O (centres unmarked) |
| 170 to 200 °C | C=C(C)CC(N)c1ccccc1-c1noc2ccccc12.Cl (centres unmarked) |
| 246 to 248 °C | C=CCC(N)c1ccccc1-c1cncc2ccccc12.O=C(O)/C=C/C(=O)O (stereo not drawn) [16 (2), 2-(isoquinolin-4-yl)-α-2-propenyl-benzenemethanamine (E)-butenedioate] |
| 192 to 195 °C | C=CCC(N)c1ccccc1-c1noc2cc(F)ccc12.Cl (centres unmarked) |
| 209 to 214 °C | C#CCC(N)c1ccccc1-c1noc2cc(Cl)ccc12.Cl (centres unmarked) |
| 176 to 180 °C | C=CCC(N)c1cc(F)ccc1-c1noc2ccccc12.O=C(O)/C=C/C(=O)O (centres unmarked) |
| 158 to 165 °C | C=CCC(N)C1(c2noc3ccccc23)CC=CO1.O=C(O)/C=C/C(=O)O (centres unmarked) |
| 192 to 196 °C | C=CCC(N)c1ccccc1-c1cccc(Cl)c1C.O=C(O)/C=C/C(=O)O (centres unmarked) |
| 189 to 191 °C | C=CCC(N)c1ccccc1-c1ccccc1Cl.O=C(O)/C=C/C(=O)O (centres unmarked) |
| 190 °C | CN(C)Cc1ccccc1-c1noc2ccccc12.Cl |
| 156 to 161 °C | C=CCC(N)c1ccccc1-c1nccs1.O=C(O)/C=C/C(=O)O (stereo not drawn) [16 (4), 2-(thiazol-2-yl)-α-2-propenyl-benzenemethanamine (E)-butenedioate] |
| 209 to 214 °C | CCCCC(N)c1ccccc1-c1noc2cc(Cl)ccc12.Cl (centres unmarked) |
| 174 to 177 °C | C=CCC(N)c1cc(Cl)ccc1-c1noc2ccccc12.O=C(O)/C=C/C(=O)O (centres unmarked) |
| 130 to 138 °C | C=CCC(N)c1ccccc1-c1cc(C)on1.O=C(O)/C=C\C(=O)O (centres unmarked) |
| 233 °C | Cl.NCc1ccccc1-c1noc2ccccc12 |
| 161 to 164 °C | C=CCC(N)c1cc(-c2noc3ccccc23)cs1.O=C(O)/C=C/C(=O)O (centres unmarked) |
| 190 to 192 °C | C=CCC(N)c1ccccc1-c1cc(F)ccc1C.O=C(O)/C=C/C(=O)O (centres unmarked) |

| melting point | Structure (SMILES) |
| --- | --- |
| 106 to 108 °C | C=CCC(N)c1ccccc1-c1cc2ccccc2s1.Cl (centres unmarked) |
| 198 to 200 °C | C=CCC(N)c1ccccc1-c1ccc(C)cc1.O=C(O)/C=C/C(=O)O (centres unmarked) |
| 210 to 216 °C | C=CCC(N)c1oc2ccccc2c1-c1noc2ccccc12.O=C(O)/C=C/C(=O)O (centres unmarked) |
| 153 °C | c1ccc(CNC(Cc2ccccc2)c2ccccc2-c2noc3ccccc23)cc1 (stereo not drawn) [Example 16(2), α-[2-(1,2-benzisoxazol-3-yl)phenyl]-N-benzyl-benzeneethanamine] |
| 205 to 208 °C | C=CCC(N)c1ccccc1-c1ccc(-c2ccccc2)c(F)c1.O=C(O)/C=C/C(=O)O (centres unmarked) |
| 182 to 189 °C | C=CCC(N)c1ccc(-c2noc3ccccc23)s1.O=C(O)/C=C/C(=O)O (centres unmarked) |
| 184 °C | COc1ccccc1CNCc1ccccc1-c1noc2ccccc12.O=C(O)C(=O)O |
| 138 °C | c1ccc(-c2noc3ccccc23)c(CNCc2ccccc2-c2noc3ccccc23)c1 [Example 22, 2-(1,2-Benzisoxazol-3-yl)-N-[[2-(1,2-benzisoxazol-3-yl)phenyl]methyl]-benzenemethanamine] |
| 75 to 77 °C | C=CCC(N)c1ccccc1N1C=CC=NC1.O=C(O)/C=C/C(=O)O (centres unmarked) |
| 174 to 184 °C | CC(C)CC(N)c1ccccc1-c1noc2cc(F)ccc12.O=C(O)/C=C/C(=O)O (centres unmarked) |
| > 250 °C | C#CCC(N)c1ccccc1-c1noc2ccccc12.O=C(O)C(=O)O (centres unmarked) |
| 171 to 173 °C | C=CC[C@@H](N)c1cc(F)ccc1-c1noc2ccccc12.O=C(O)/C=C/C(=O)O |
| 225 to 226 °C | C=CCC(N)c1ccccc1-c1ccccc1F.O=C(O)/C=C/C(=O)O (centres unmarked) |
| 196 to 197 °C | C=CCC(N)c1ccccc1-c1cccs1.O=C(O)/C=C/C(=O)O (centres unmarked) |
| 160 to 165 °C | C=CCC(N)c1ccccc1-c1coc2ccccc12.Cl (centres unmarked) |
| 179 to 184 °C | C=CCC(N)c1ccccc1-c1cc(Cl)ccc1C.O=C(O)/C=C/C(=O)O (centres unmarked) |
| 185 to 187 °C | C=CCC(N)c1ccccc1-c1csc2ccccc12.O=C(O)/C=C\C(=O)O (centres unmarked) |

Test system: marble burying behaviour in mice
Test: Mouse Marble Burying Assay (BUR)
Format: in vivo
Details: Mus musculus; sc; Table 2; read-out: BUR sc ED50(mg/kg)
Procedure: This assay was carried out essentially according to the procedure described by Treit et al. (1981) Pharmacol Biochem Behav; 15; 619-626.
The results are presented as BUR ED50 (sc). This is the effective dose causing 50% inhibition of burying compared to control mice.

| Structure (SMILES) | ED50 |
| --- | --- |
| C=CCC(N)c1ccccc1-c1cncc2ccccc12.O=C(O)/C=C/C(=O)O (stereo not drawn) [16 (2), 2-(isoquinolin-4-yl)-α-2-propenyl-benzenemethanamine (E)-butenedioate] | 9.9 mg/kg |
| C=CCC(N)c1ccccc1-c1nccs1.O=C(O)/C=C/C(=O)O (stereo not drawn) [16 (4), 2-(thiazol-2-yl)-α-2-propenyl-benzenemethanamine (E)-butenedioate] | 9 mg/kg |
| C=CCC(N)c1ccccc1-c1noc2cnccc12.O=C(O)/C=C/C(=O)O (stereo not drawn) [16 (6), 2-(isoxazolo[5,4-c]pyridin-3-yl)-α-2-propenyl-benzenemethanamine (E)-butenedioate] | 3.8 mg/kg |

Same assay, conditions: Mus musculus; sc; effective dose causing 50% inhibition of burying compared to control mice; read-out: BUR ED50 (SC)

| Structure (SMILES) | ED50 |
| --- | --- |
| Cl.NC(CC1CC1)c1ccccc1-c1noc2ccccc12 (stereo not drawn) [36(6), 2-(1,2-benzisoxazol-3-yl)-α-(cyclopropylmethyl)-benzenemethanamine hydrochloride] | 1.5 mg/kg |
| Cl.NC(c1ccccc1-c1noc2ccccc12)C1CC=CCC1 (stereo not drawn) [Example 37, 2-(1,2-Benzisoxazol-3-yl)-α-(3-cyclohexenyl)-benzenemethanamine Hydrochloride] | 3.1 mg/kg |

Same assay, conditions: Table 2

| Structure (SMILES) | BUR sc ED50(mg/kg) |
| --- | --- |
| C=CCC(N)c1ccccc1-c1cccc2ccccc12.Cl (stereo not drawn) [15 (6), 2-(napth-1-yl)-α-2-propenyl-benzenemethanamine hydrochloride] | 11.6 mg/kg |

Same assay, conditions: effective dose causing 50% inhibition of burying compared to control mice

| Structure (SMILES) | BUR ED50 (SC) |
| --- | --- |
| C#CCC(N)c1ccccc1-c1noc2cc(Cl)ccc12.C#CCC(N)c1ccccc1-c1noc2cc(Cl)ccc12.O=C(O)/C=C/C(=O)O (single isomer, unassigned; (-)) [13(5), (−)-2-(6-chloro-1,2-benzisoxazol-3-yl)-α-2-propynyl-benzenemethanamine (E)-butenedioate (2:1 salt)] | 0.4 mg/kg |
| Cl.NC(Cc1ccc(F)cc1)c1ccccc1-c1noc2ccccc12 (stereo not drawn) [Example 36, 2-(1,2-Benzisoxazol-3-yl)-α-(4-fluorobenzyl)-benzenemethanamine Hydrochloride.] | 2.8 mg/kg |
